Consider 44 molecules from patent publication US12011444B2, “N-substituted indole derivatives as PGE2 receptor modulators” (Idorsia Pharmaceuticals Ltd, priority 2015, dated 2024).

One assay concerns the target EP4 (Homo sapiens (Human), UniProt P35408). Nature of the assay: hEP4 cAMP assay (BT549 breast cancer cells, HTRF cAMP). The settings on record: antagonistic activity; mean values where measured multiple times. Type of assay: cell-based. As to the method:
Plate is pre-incubated 45 minutes at room temperature. Subsequently, 2.5 microliters of PGE2 (final conc. 6 nM) are transferred into the assay plate. Plate is incubated 30 minutes at room temperature.

In the next assay the target is EP2 (Homo sapiens (Human), UniProt P43116).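 Further: antagonism of PGE2-stimulated cAMP accumulation in SF295 human glioblastoma cells with endogenous EP2, cAMP read by HTRF, expressed relative to DMSO control.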
Chain of EP2 (P43116 whole entry): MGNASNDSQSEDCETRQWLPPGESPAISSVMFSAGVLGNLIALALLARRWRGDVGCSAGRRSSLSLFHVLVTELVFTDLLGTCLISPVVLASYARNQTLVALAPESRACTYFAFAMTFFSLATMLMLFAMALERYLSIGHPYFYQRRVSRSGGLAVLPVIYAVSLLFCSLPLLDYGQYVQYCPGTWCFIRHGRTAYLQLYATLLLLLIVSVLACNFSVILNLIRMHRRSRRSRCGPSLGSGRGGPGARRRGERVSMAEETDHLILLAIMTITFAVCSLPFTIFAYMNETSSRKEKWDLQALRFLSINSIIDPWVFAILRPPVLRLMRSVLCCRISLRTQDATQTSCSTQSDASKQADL

The structures appear in SMILES notation. pIC50: −log10 of the molar value.

Chain of EP4 (P35408 whole entry): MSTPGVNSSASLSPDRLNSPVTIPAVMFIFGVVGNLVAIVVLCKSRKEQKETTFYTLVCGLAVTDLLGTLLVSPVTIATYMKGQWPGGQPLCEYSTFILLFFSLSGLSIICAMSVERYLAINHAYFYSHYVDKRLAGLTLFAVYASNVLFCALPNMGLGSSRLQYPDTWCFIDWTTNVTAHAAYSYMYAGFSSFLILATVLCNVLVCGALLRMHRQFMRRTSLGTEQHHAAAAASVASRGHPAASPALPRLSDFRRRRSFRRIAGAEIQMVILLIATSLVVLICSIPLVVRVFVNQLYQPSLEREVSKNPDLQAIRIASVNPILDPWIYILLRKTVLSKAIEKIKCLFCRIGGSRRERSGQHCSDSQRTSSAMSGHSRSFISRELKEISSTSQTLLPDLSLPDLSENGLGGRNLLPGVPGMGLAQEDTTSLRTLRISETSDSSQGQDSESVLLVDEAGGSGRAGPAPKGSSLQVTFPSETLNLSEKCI

Turning to `COc1c(Cl)cc(F)c2c1cc(C)n2CCNc1cc(-c2ccc(C(=O)O)c(CC(C)C)c2)ncn1` [compound 622], the pIC50 (in general, −log10 of the IC50, conventionally taken in molar units) against EP4 is 6.52; against EP2, 6.14.

For `CCc1cc(-c2cc(NCCn3c(C)cc4c(OC)ccc(F)c43)ncn2)cc(F)c1C(=O)O` [compound 437], the values for the negative-log IC50 (pIC50) against EP4 and at EP2 were 6.70 and 7.82, respectively.

Regarding `CCCc1cc(-c2cc(NCCn3c(C)cc4c(OC)ccc(Cl)c43)ncn2)cc(OCC)c1C(=O)O` [compound 633], the pIC50 against EP4 was 6.12; against EP2, 7.22.

`CCOc1cc(-c2cc(NCCn3c(C)cc4c(OC)ccc(F)c43)ncn2)ccc1-c1nnn[nH]1` [compound 661]: the pIC50 was 7.41 at EP4 and 8.40 against EP2.

For `CCCOc1cc(-c2cc(NCCn3c(C)cc4c(C)cc(F)cc43)ncn2)cc(Cl)c1C(=O)O` [compound 523], the negative-log IC50 (pIC50) against EP4 was 6.85; on EP2, 7.46.

In the case of `COc1c(F)cc(Cl)c2c1cc(C)n2CCNc1cc(-c2ccc(C(=O)O)c(SC)c2)ncn1` [compound 448], the negative logarithm of the IC50 (pIC50) against EP4 was 6.29; on EP2, 7.34.

With `CCOc1cc(-c2cc(NCCn3c(C)cc4c(OC)cccc43)ncn2)ccc1CNC1CC1` [compound 463], the figures for the negative logarithm of the IC50 (pIC50) against EP4 and on EP2 were 6.13 and 6.60, respectively.

`CCCOc1cc(-c2cc(NCCn3c(C)cc4c(OC)cccc43)ncn2)cc(Cl)c1C(=O)O` [compound 497]: the results for the pIC50 on EP4 and against EP2 were 6.77 and 7.96, respectively.

For `COc1cc(F)cc2c1cc(C)n2CCNc1cc(-c2cc(C(F)(F)F)c(C(=O)O)s2)nc(C)n1` [compound 541], the negative logarithm of the IC50 (pIC50) against EP4 is 7.60; against EP2, 7.72.

For `COc1cc(F)cc2c1cc(C)n2CCNc1cc(-c2ccc(-c3cc(N(C)C)ncn3)cc2)ncn1` [Example 763, 6-(4-(6-((2-(6-Fluoro-4-methoxy-2-methyl-1H-indol-1-yl)ethyl)amino)pyrimidin-4-yl)phenyl)-N,N-dimethylpyrimidin-4-amine], the pIC50 was 6.86 against EP4 and 7.60 against EP2.

Regarding `COc1cc(F)cc2c1cc(C)n2CCNc1cc(-c2ccc(-c3ccno3)cc2)ncn1` [compound 743, [2-(6-Fluoro-4-methoxy-2-methyl-indol-1-yl)-ethyl]-[6-(4-isoxazol-5-yl-phenyl)-pyrimidin-4-yl]-amine], the pIC50 at EP4 was 6.50; at EP2, 8.00.

With `COc1cncc(-c2ccc(-c3cc(NCCn4c(C)cc5c(OC)cc(F)cc54)ncn3)cc2)n1` [Example 761, [2-(6-Fluoro-4-methoxy-2-methyl-indol-1-yl)-ethyl]-{6-[4-(6-methoxy-pyrazin-2-yl)-phenyl]-pyrimidin-4-yl}-amine], the negative-log IC50 (pIC50) was 6.79 against EP4 and 7.40 at EP2.

Take `COc1cc(F)cc2c1cc(C)n2CCNc1cc(-c2ccc3ccncc3c2)ncn1` [compound 728]: the negative-log IC50 (pIC50) against EP4 is 6.96; against EP2, 7.44.

In the case of `COc1cc(-c2cc(NCCn3c(C)cc4c(OC)ccc(F)c43)ncn2)ccc1-c1nnn[nH]1` [compound 683, [2-(7-Fluoro-4-methoxy-2-methyl-indol-1-yl)-ethyl]-{6-[3-methoxy-4-(1H-tetrazol-5-yl)-phenyl]-pyrimidin-4-yl}-amine], the negative logarithm of the IC50 (pIC50) was 6.79 against EP4 and 8.22 at EP2.

As for `COc1ccc(F)c2c1cc(C)n2CCNc1cc(-c2ccc(N3CCCS3(=O)=O)cc2)ncn1` [compound 469], the pIC50 against EP4 is 6.18; against EP2, 7.17.

As for `COc1ccc(F)c2c1cc(C)n2CCNc1cc(-c2ccc(C(=O)O)c(NCC(F)(F)F)c2)ncn1` [compound 588, 4-{6-[2-(7-Fluoro-4-methoxy-2-methyl-indol-1-yl)-ethylamino]-pyrimidin-4-yl}-2-(2,2,2-trifluoro-ethylamino)-benzoic acid], the pIC50 on EP4 is 7.04; on EP2, 8.70.

Turning to `COc1cc(F)c(F)c2c1cc(C)n2CCNc1cc(-c2ccc(C(=O)CC#N)cc2)ncn1` [compound 711, 3-(4-{6-[2-(6,7-Difluoro-4-methoxy-2-methyl-indol-1-yl)-ethylamino]-pyrimidin-4-yl}-phenyl)-3-oxo-propionitrile], the negative logarithm of the IC50 (pIC50) against EP4 was 6.37; on EP2, 7.80.

On to `COc1ccc(F)c2c1cc(C)n2CCNc1cc(-c2ccc(-c3oc(CCC(=O)O)nc3C)cc2)ncn1` [compound 652], for which the pIC50 at EP4 is 6.87; on EP2, 7.22.

With `CCCOc1cc(-c2cc(NCCn3c(C)cc4c(OC)cccc43)ncn2)ccc1C(=O)O` [compound 400], the negative logarithm of the IC50 (pIC50) was 6.38 against EP4 and 8.22 at EP2.

`Cc1ccc(F)c2c1cc(C)n2CCNc1cc(-c2ccc(C(=O)O)c(OCC(C)C)c2)ncn1` [compound 534]: the pIC50 against EP4 is 7.04; on EP2, 8.10.

Turning to `COc1cc(F)cc2c1cc(C)n2CCNc1cc(-c2ccc(-c3c[nH]c(C)n3)cc2)ncn1` [compound 581], the values for the pIC50 on EP4 and at EP2 were 7.48 and 8.30, respectively.

`Cc1cc(F)cc2c1cc(C)n2CCNc1cc(-c2ccc3ncccc3c2)ncn1` [compound 732]: the negative logarithm of the IC50 (pIC50) against EP4 is 6.47; against EP2 it was 7.39.

Regarding `Cc1ccc(F)c2c1cc(C)n2CCNc1cc(-c2ccc(C(=O)O)c(OC(F)F)c2)ncn1` [compound 601], the negative logarithm of the IC50 (pIC50) at EP4 is 6.91; at EP2 it was 7.92.

On to `COc1cc(F)cc2c1cc(C)n2CCNc1cc(-c2ccc(C(=O)O)c(CC(C)C)c2)ncn1` [compound 530], for which the negative-log IC50 (pIC50) against EP4 was 7.30; at EP2 it was 7.68.

In the case of `CCCOc1cc(-c2cc(NCCn3c(C)cc4c(C)cc(F)cc43)ncn2)ccc1C(=O)O` [compound 439], the results for the negative-log IC50 (pIC50) on EP4 and against EP2 were 6.57 and 7.72, respectively.

Consider `CCOc1cc(-c2cc(NCCn3c(C)cc4c(OC)ccc(Cl)c43)ncn2)ccc1-c1nnn[nH]1` [compound 662], for which the negative logarithm of the IC50 (pIC50) on EP4 is 6.87; against EP2, 8.10.

For `COc1cccc2c1cc(C)n2CCNc1cc(-c2ccc(C(=O)O)c(Oc3ccc(F)cc3)c2)ncn1` [compound 649], the negative-log IC50 (pIC50) against EP4 is 6.11; against EP2 it was 7.89.

As for `Cc1cc2c(Cl)cc(F)cc2n1CCNc1cc(-c2ccc(C(=O)O)c(CC(C)C)c2)ncn1` [compound 419], the pIC50 on EP4 was 6.39; against EP2, 7.05.

As to `CCCc1cc(-c2cc(NCCn3c(C)cc4cc(F)cc(Cl)c43)ncn2)cc(Cl)c1C(=O)O` [compound 426], the negative-log IC50 (pIC50) against EP4 was 6.12; at EP2, 7.77.

Regarding `CCOc1cc(-c2cc(NCCn3c(C)cc4c(OC)ccc(F)c43)ncn2)ccc1C(=O)NOC` [Example 765, 2-Ethoxy-4-{6-[2-(7-fluoro-4-methoxy-2-methyl-indol-1-yl)-ethylamino]-pyrimidin-4-yl}-N-methoxy-benzamide], the figures for the pIC50 at EP4 and on EP2 were 6.39 and 7.89, respectively.

Regarding `Cc1ccc(F)c2c1cc(C)n2CCNc1cc(-c2ccc3c(c2)CN(CC(C)C)C3=O)ncn1` [compound 467], the pIC50 against EP4 was 6.00; at EP2 it was 6.41.

Consider `COc1cc(F)cc2c1cc(C)n2CCNc1cc(-c2ccc(-c3cc(C)[nH]n3)cc2)ncn1` [compound 583], for which the pIC50 at EP4 is 7.19; against EP2, 8.00.

`Cc1cc(F)c(F)c2c1cc(C)n2CCNc1cc(-c2cc(C(F)(F)F)c(C(=O)O)s2)ncn1` [compound 420]: the pIC50 against EP4 was 7.03; at EP2, 7.02.

On to `CCOc1cc(-c2cc(NCCn3c(C#N)cc4c(OC)cc(F)cc43)ncn2)ccc1C(=O)O` [compound 480], for which the values for the pIC50 against EP4 and against EP2 were 7.12 and 7.59, respectively.

On to `CCNc1cc(-c2cc(NCCn3c(C)cc4c(OC)ccc(Cl)c43)ncn2)ccc1C(=O)O` [compound 396], for which the results for the negative-log IC50 (pIC50) against EP4 and against EP2 were 7.19 and 9.00, respectively.

Consider `Cc1cc2c(Cl)ccc(Cl)c2n1CCNc1cc(-c2ccc(C(=O)O)c(SC3CCC3)c2)ncn1` [compound 453, 2-Cyclobutylsulfanyl-4-{6-[2-(4,7-dichloro-2-methyl-indol-1-yl)-ethylamino]-pyrimidin-4-yl}-benzoic acid], for which the pIC50 against EP4 is 6.04; at EP2, 7.51.

`Cc1ccc(Cl)c2c1cc(C)n2CCNc1cc(-c2ccc(C(=O)O)c(SC3CCC3)c2)ncn1` [compound 452, 4-{6-[2-(7-Chloro-2,4-dimethyl-indol-1-yl)-ethylamino]-pyrimidin-4-yl}-2-cyclobutylsulfanyl-benzoic acid]: the negative logarithm of the IC50 (pIC50) against EP4 is 6.33; on EP2, 7.47.

Take `CCNc1cc(-c2cc(NCCn3c(C)cc4c(OC)ccc(F)c43)ncn2)cc(F)c1C(=O)O` [compound 483]: the negative logarithm of the IC50 (pIC50) is 7.01 against EP4 and 8.40 at EP2.

As for `CCCc1cc(-c2cc(NCCn3c(C)cc4cc(Cl)cc(F)c43)ncn2)cc(F)c1C(=O)O` [compound 425], the pIC50 was 6.28 at EP4 and 7.14 on EP2.

For the molecule `CCCCOc1cc(-c2cc(NCCn3c(C)cc4c(C)cc(F)cc43)ncn2)ccc1C(=O)O` [compound 527], the negative logarithm of the IC50 (pIC50) at EP4 was 6.87; against EP2, 8.10.

As for `COc1cc(F)cc2c1cc(C)n2CCNc1cc(-c2cc(OC(C)C)c(C(=O)O)s2)ncn1` [compound 676], the figures for the negative-log IC50 (pIC50) against EP4 and against EP2 were 8.05 and 8.52, respectively.

Consider `COc1ccc(F)c2c1cc(C)n2CCNc1cc(-c2ccc3c(=O)[nH][nH]c3c2)ncn1` [Example 773, 6-{6-[2-(7-Fluoro-4-methoxy-2-methyl-indol-1-yl)-ethylamino]-pyrimidin-4-yl}-1,2-dihydro-indazol-3-one], for which the negative logarithm of the IC50 (pIC50) is 7.31 at EP4 and 7.49 against EP2.

As for `Cc1ccc(F)c2c1cc(C)n2CCNc1cc(-c2ccc(-n3cncn3)cc2)ncn1` [compound 741, [2-(7-Fluoro-2,4-dimethyl-indol-1-yl)-ethyl]-[6-(4-[1,2,4]triazol-1-yl-phenyl)-pyrimidin-4-yl]-amine], the pIC50 is 6.30 against EP4 and 7.43 against EP2.

Take `COc1ccc(F)c2c1cc(C)n2CCNc1cc(-c2cccc(-n3cccn3)c2)ncn1` [compound 556]: the results for the pIC50 against EP4 and against EP2 were 6.38 and 7.27, respectively.
